Measurements published in ChEMBL document CHEMBL3407381, “Synthesis, biological evaluation and 3D QSAR study of 2,4-disubstituted quinolines as anti-tuberculosis agents” (Eur J Med Chem, 2015).

Assays:
[1] = system: Mycobacterium tuberculosis; assay: Anti-tuberculosis activity against Mycobacterium tuberculosis H37Rv assessed as inhibition of microbial growth at 6.25 ug/ml by MABA method; type: functional
[2] = system: Mycobacterium tuberculosis; assay: Anti-tuberculosis activity against Mycobacterium tuberculosis H37Rv assessed as inhibition of microbial growth at 3.125 ug/ml by MABA method; type: functional
[3] = system: Mycobacterium tuberculosis; assay: Anti-tuberculosis activity against Mycobacterium tuberculosis H37Rv assessed as inhibition of microbial growth by MABA method; type: functional, organism-based
[4] = system: Mycobacterium tuberculosis; assay: Anti-tuberculosis activity against Mycobacterium tuberculosis H37Rv assessed as inhibition of microbial growth at 1.56 ug/ml by MABA method; type: functional
L929 = assay: Cytotoxicity against mouse L929 cells assessed as reduction cell viability after 5 days by MTT assay; type: cell-based; settings: l929, 120 h

Row | SMILES | inhibition at 6.25 µg/mL [1] [%] | inhibition at 3.125 µg/mL [2] [%] | IC50 [3] [µM] | MIC90 [3] [µg/mL] | inhibition at 1.56 µg/mL [4] [%] | Activity (L929) [µg/mL] | MIC99 [3] [µg/mL]
1 | COC(=O)c1ccc2ccccc2n1 | ≥ 90 |  |  |  |  |  | 
2 | NNC(=O)c1cc(C23CC4CC(CC(C4)C2)C3)c2ccccc2n1 | 99 | 99 | 0.389 | 3.12 | 80 | > 200 | 
3 | CCCCC(O)c1cc(C23CC4CC(CC(C4)C2)C3)c2ccccc2n1 (centres undefined) | 91 |  | 2.19 | 6.25 |  | > 200 | 
4 | NNC(=O)c1cc(CC2CC3CCC2C3)c2ccccc2n1 (centres undefined) | 92 |  | 1.95 | 6.25 |  | > 200 | 
5 | CC1CCCCC1c1cc(C(=O)NN)nc2ccccc12 (centres undefined) | 99 | 99 | 0.457 | 3.12 | 77 | > 200 | 
6 | CC(C)(C)C1CCC(c2cc(C(=O)NN)nc3ccccc23)CC1 (centres undefined) | 99 | 99 | 0.347 | 3.12 | 82 | > 200 | 
7 | CC1CCC(c2cc(C(=O)NN)nc3ccccc23)CC1 (centres undefined) | 84 |  | 3.55 | 6.25 |  | > 200 | 
8 | NNC(=O)c1cc(C2CCC(C(F)(F)F)CC2)c2ccccc2n1 (centres undefined) | 89 |  | 2.75 | 6.25 |  | > 200 | 
9 | COC1CCCC(c2cc(C(=O)NN)nc3ccccc23)C1 (centres undefined) | 90 |  | 2.95 | 6.25 |  | > 200 | 
10 | CO[C@H]1CC[C@H](c2cc(C(=O)NN)nc3ccccc32)CC1 | 32 |  | 32.4 | 6.25 |  | > 200 | 
11 | CO[C@H]1CC[C@@H](c2cc(C(=O)NN)nc3ccccc32)CC1 | 90 |  | 2.34 | 6.25 |  | > 200 | 
12 | C=CCC(O)c1cc(C23CC4CC(CC(C4)C2)C3)c2ccccc2n1 (centres undefined) | 44 |  | 22.9 | 6.25 |  | > 200 | 
13 | OC(c1ccccc1)c1cc(C23CC4CC(CC(C4)C2)C3)c2ccccc2n1 (centres undefined) | 86 |  | 3.09 | 6.25 |  | > 200 | 
14 | COc1ccc(C(O)c2cc(C34CC5CC(CC(C5)C3)C4)c3ccccc3n2)cc1 (centres undefined) | 47 |  | 83.2 | 6.25 |  | > 200 | 
15 | Cc1ccc(C(O)c2cc(C34CC5CC(CC(C5)C3)C4)c3ccccc3n2)cc1 (centres undefined) | 76 |  | 5.01 | 6.25 |  | > 200 | 
16 | OC(c1ccc(F)cc1)c1cc(C23CC4CC(CC(C4)C2)C3)c2ccccc2n1 (centres undefined) | 99 | 99 | 0.316 | 3.12 | 69 | > 200 | 

Row | SMILES | inhibition at 6.25 µg/mL [1] [%] | inhibition at 3.125 µg/mL [2] [%] | IC50 [3] [µM] | MIC90 [3] [µg/mL] | inhibition at 1.56 µg/mL [4] [%] | Activity (L929) [µg/mL] | MIC99 [3] [µg/mL]
17 | CN(C)c1ccc(C(O)c2cc(C34CC5CC(CC(C5)C3)C4)c3ccccc3n2)cc1 (centres undefined) | 4 |  | 331 | 6.25 |  | > 200 | 
18 | CCC(O)c1cc(C23CC4CC(CC(C4)C2)C3)c2ccccc2n1 (centres undefined) | 73 |  | 6.92 | 6.25 |  | > 200 | 
19 | CCCC(O)c1cc(C23CC4CC(CC(C4)C2)C3)c2ccccc2n1 (centres undefined) | 86 |  | 4.47 | 6.25 |  | > 200 | 
20 | OC(c1cc(C23CC4CC(CC(C4)C2)C3)c2ccccc2n1)c1cccc2ccccc12 (centres undefined) | 9 |  | 182 | 6.25 |  | > 200 | 
21 | O=C(c1cc(C23CC4CC(CC(C4)C2)C3)c2ccccc2c1)N1CCNCC1 | 82 |  | 3.09 | 6.25 |  | > 200 | 
22 | O=C(NC1CCN(Cc2ccccc2)CC1)c1cc(C23CC4CC(CC(C4)C2)C3)c2ccccc2c1 | 90 |  | 1.51 | 6.25 |  | > 200 | 
23 | CN1CCN(C(=O)c2cc(C34CC5CC(CC(C5)C3)C4)c3ccccc3c2)CC1 | 87 |  | 5.89 | 6.25 |  | > 200 | 
24 | O=C(c1cc(C23CC4CC(CC(C4)C2)C3)c2ccccc2c1)N1CCCCC1 | 9 |  | 120 | 6.25 |  | > 200 | 
25 | O=C(c1cc(C23CC4CC(CC(C4)C2)C3)c2ccccc2c1)N1CCN(c2ccccn2)CC1 | 8 |  | 63.1 | 6.25 |  | > 200 | 
26 | O=C(c1cc(C23CC4CC(CC(C4)C2)C3)c2ccccc2c1)N1CCCC1 | 53 |  | 13.2 | 6.25 |  | > 200 | 
27 | O=C(c1cc(C23CC4CC(CC(C4)C2)C3)c2ccccc2c1)N1CCOCC1 | 14 |  | 110 | 6.25 |  | > 200 | 
28 | O=C(c1cc(C23CC4CC(CC(C4)C2)C3)c2ccccc2c1)N1CCN(c2ccccc2)CC1 | 90 |  | 0.871 | 6.25 |  | > 200 | 
29 | O=C(NO)c1cc(C23CC4CC(CC(C4)C2)C3)c2ccccc2c1 | 91 |  | 1.17 | 6.25 |  | > 200 | 
30 | COC(=O)c1cc(C23CC4CC(CC(C4)C2)C3)c2ccccc2n1 | ≥ 90 |  |  |  |  |  | 
31 | NNC(=O)c1ccncc1 [ISONIAZID] |  |  |  |  |  |  | 0.1
32 | CO[C@H]1/C=C/O[C@@]2(C)Oc3c(C)c(O)c4c(O)c(c(/C=N/N5CCN(C)CC5)c(O)c4c3C2=O)NC(=O)/C(C)=C\C=C\[C@H](C)[C@H](O)[C@@H](C)[C@@H](O)[C@@H](C)[C@H](OC(C)=O)[C@@H]1C [RIFAMPIN] |  |  |  |  |  |  | 0.2
